# Measured values: patent US20210227837A1, “NATAMYCIN FOR THE PRESERVATION OF A BAKED PRODUCT” (DSM IP ASSETS B.V., priority 2018, published 2021)
# What was measured:
# [1] = Stability of natamycin solutions in propylene glycol and aqueous potassium formate (residual natamycin by HPLC); format: physicochemical; conditions: natamycin 1% (w/w)
# Procedure: (§1) Natamycin concentrations were determined using […] as follows. • HPLC system: Waters iClass • Column: Waters Symmetry C18, 4.6×150 mm, 3.5 μm, Part No. WAT200632, Column no. 1483, Lot no. 0198313011 • Column temperature: 25° C. • Eluent A: 50 mM ammonium acetate buffer pH 5.8 (with acetic acid) • Eluent B: Acetonitrile • Wash: 60% acetonitrile/40% water (v/v) • Injection volume: 10 μl • Injector temperature: 10° C. in darkness • Flow: 1 mL/min
# (§2) The reverse phase HPLC uses a UV detector to determine the residual concentration of natamycin at 303 nm. A set of standard dilutions containing subsequently increasing concentrations of natamycin in methanol was made and from these a calibration curve was obtained. The concentration of natamycin should not exceed a concentration of 88 mg/L. Generally, the dilutions contained 20 mg of sample and […] of methanol.
# A 3.5 M solution of potassium formate in water (15.17 g) was mixed with propylene glycol (80.32 g) and natamycin (1.059 g) and heated for 2.57 h until a final temperature of 105° C. A second batch was prepared by mixing a 3.5 M solution of potassium formate in water (15.07 g) with propylene glycol (80.5 g) and natamycin (1.032 g) and heating for 3.25 h until a final temperature of 105° C. Both batches were filtered over a 2 μm filter and combined to give a solution with a natamycin concentration of 1.08% (w/w). […] Samples of the mixtures were analyzed over time by HPLC for residual natamycin concentration. The shelf life test of the mixtures was done by storage at low temperatures (4-7° C.) and ambient temperatures (20-24° C.).
# [2] = neutral pH values; cited from earlier work
# [3] = Stability of natamycin solutions in propylene glycol and aqueous sodium lactate (residual natamycin by HPLC); format: physicochemical; conditions: 4-7° C., pH 7.8, natamycin 1% (w/w)
# Procedure: as §1, §2
# (§3) A 9.3 M solution of sodium lactate in water (3 g) was mixed with propylene glycol (16 g) and natamycin (0.2 g) and heated until a final temperature of 105° C. to give a solution with a natamycin concentration of 1% (w/w). […] Samples of the mixtures were analyzed over time by HPLC for residual natamycin concentration. The shelf life test of the mixtures was done by storage at low temperatures (4-7° C.).
# [4] = Stability of natamycin solutions in propylene glycol and aqueous sodium acetate or potassium acetate (residual natamycin by HPLC); format: physicochemical; conditions: 4-7° C., natamycin 1%
# Procedure: as §1, §2
# as §3, with “4.4” for “9.3”, “acetate or a 5 M solution of potassium acetate” for “lactate”, “(4-7° C.) and ambient temperatures (20-23°” for “(4-7°”
structure (smiles),measurement,setting,value
C[C@@H]1C/C=C/C=C/C=C/C=C/[C@H](O[C@@H]2O[C@H](C)[C@@H](O)[C@H](N)[C@@H]2O)C[C@@H]2O[C@](O)(C[C@@H](O)C[C@H]3O[C@@H]3/C=C/C(=O)O1)C[C@H](O)[C@H]2C(=O)O [natamycin],Residual natamycin (%),"[1]; Blank (water instead of potassium formate), propylene glycol, 4-7° C., pH 6.2, day 0",80%
same,Residual natamycin (%),"[1]; Blank (water instead of potassium formate), propylene glycol, 4-7° C., pH 6.2, day 14",43%
same,Residual natamycin (%),"[1]; Blank (water instead of potassium formate), propylene glycol, 4-7° C., pH 6.2, day 23",22%
same,Residual natamycin (%),"[1]; Blank (water instead of potassium formate), propylene glycol, 4-7° C., pH 6.2, day 32",12%
same,Residual natamycin (%),"[1]; Blank (water instead of potassium formate), propylene glycol, 4-7° C., pH 6.2, day 35",7%
same,Residual natamycin (%),"[1]; Blank (water instead of potassium formate), propylene glycol, 20-24° C., pH 6.3, day 0",83%
same,Residual natamycin (%),"[1]; Blank (water instead of potassium formate), propylene glycol, 20-24° C., pH 6.3, day 5",72%
same,Residual natamycin (%),"[1]; Blank (water instead of potassium formate), propylene glycol, 20-24° C., pH 6.3, day 7",66%
same,Residual natamycin (%),"[1]; Blank (water instead of potassium formate), propylene glycol, 20-24° C., pH 6.3, day 12",55%
same,Residual natamycin (%),"[1]; Blank (water instead of potassium formate), propylene glycol, 20-24° C., pH 6.3, day 14",52%
same,Residual natamycin (%),"[1]; Blank (water instead of potassium formate), propylene glycol, 20-24° C., pH 6.3, day 25",31%
same,Residual natamycin (%),"[1]; Blank (water instead of potassium formate), propylene glycol, 20-24° C., pH 6.3, day 27",25%
same,Residual natamycin (%),"[1]; Blank (water instead of potassium formate), propylene glycol, 20-24° C., pH 6.3, day 43",18%
same,Residual natamycin (%),"[1]; Blank (water instead of potassium formate), propylene glycol, 20-24° C., pH 6.3, day 74",6%
same,Residual natamycin (%),"[1]; propylene glycol + aqueous potassium formate, 4-7° C., pH 9.5, day 0",111%
same,Residual natamycin (%),"[1]; propylene glycol + aqueous potassium formate, 4-7° C., pH 9.5, day 5",114%
same,Residual natamycin (%),"[1]; propylene glycol + aqueous potassium formate, 4-7° C., pH 9.5, day 14",114%
same,Residual natamycin (%),"[1]; propylene glycol + aqueous potassium formate, 4-7° C., pH 9.5, day 23",112%
same,Residual natamycin (%),"[1]; propylene glycol + aqueous potassium formate, 4-7° C., pH 9.5, day 43",108%
same,Residual natamycin (%),"[1]; propylene glycol + aqueous potassium formate, 4-7° C., pH 9.8, day 0",96%
same,Residual natamycin (%),"[1]; propylene glycol + aqueous potassium formate, 4-7° C., pH 9.8, day 4",96%
same,Residual natamycin (%),"[1]; propylene glycol + aqueous potassium formate, 4-7° C., pH 9.8, day 10",97%
same,Residual natamycin (%),"[1]; propylene glycol + aqueous potassium formate, 4-7° C., pH 9.8, day 15",88%
same,Residual natamycin (%),"[1]; propylene glycol + aqueous potassium formate, 4-7° C., pH 9.8, day 18",92%
same,Residual natamycin (%),"[1]; propylene glycol + aqueous potassium formate, 4-7° C., pH 9.8, day 25",91%
same,Residual natamycin (%),"[1]; propylene glycol + aqueous potassium formate, 4-7° C., pH 9.8, day 42",88%
same,Residual natamycin (%),"[1]; propylene glycol + aqueous potassium formate, 4-7° C., pH 9.8, day 53",90%
same,Residual natamycin (%),"[1]; propylene glycol + aqueous potassium formate, 4-7° C., pH 9.8, day 60",96%
same,Residual natamycin (%),"[1]; propylene glycol + aqueous potassium formate, 4-7° C., pH 9.8, day 80",87%
same,Residual natamycin (%),"[1]; propylene glycol + aqueous potassium formate, 4-7° C., pH lowered to 5.9 by formic acid, day 0",83%
same,Residual natamycin (%),"[1]; propylene glycol + aqueous potassium formate, 4-7° C., pH lowered to 5.9 by formic acid, day 5",66%
same,Residual natamycin (%),"[1]; propylene glycol + aqueous potassium formate, 4-7° C., pH lowered to 5.9 by formic acid, day 14",45%
same,Residual natamycin (%),"[1]; propylene glycol + aqueous potassium formate, 4-7° C., pH lowered to 5.9 by formic acid, day 23",21%
same,Residual natamycin (%),"[1]; propylene glycol + aqueous potassium formate, 4-7° C., pH lowered to 5.9 by formic acid, day 43",2%
same,Residual natamycin (%),"[1]; propylene glycol + aqueous potassium formate, 4-7° C., pH lowered to 8.8 by formic acid, day 0",94%
same,Residual natamycin (%),"[1]; propylene glycol + aqueous potassium formate, 4-7° C., pH lowered to 8.8 by formic acid, day 5",96%
same,Residual natamycin (%),"[1]; propylene glycol + aqueous potassium formate, 4-7° C., pH lowered to 8.8 by formic acid, day 14",94%
same,Residual natamycin (%),"[1]; propylene glycol + aqueous potassium formate, 4-7° C., pH lowered to 8.8 by formic acid, day 23",93%
same,Residual natamycin (%),"[1]; propylene glycol + aqueous potassium formate, 4-7° C., pH lowered to 8.8 by formic acid, day 43",86%
same,Residual natamycin (%),"[1]; propylene glycol + aqueous potassium formate, 4-7° C., pH lowered to 9.0 by formic acid, day 0",93%
same,Residual natamycin (%),"[1]; propylene glycol + aqueous potassium formate, 4-7° C., pH lowered to 9.0 by formic acid, day 5",97%
same,Residual natamycin (%),"[1]; propylene glycol + aqueous potassium formate, 4-7° C., pH lowered to 9.0 by formic acid, day 14",94%
same,Residual natamycin (%),"[1]; propylene glycol + aqueous potassium formate, 4-7° C., pH lowered to 9.0 by formic acid, day 23",93%
same,Residual natamycin (%),"[1]; propylene glycol + aqueous potassium formate, 4-7° C., pH lowered to 9.0 by formic acid, day 43",92%
same,Residual natamycin (%),"[1]; propylene glycol + aqueous potassium formate, 20-24° C., pH 9.8, day 0",92%
same,Residual natamycin (%),"[1]; propylene glycol + aqueous potassium formate, 20-24° C., pH 9.8, day 5",95%
same,Residual natamycin (%),"[1]; propylene glycol + aqueous potassium formate, 20-24° C., pH 9.8, day 7",95%
same,Residual natamycin (%),"[1]; propylene glycol + aqueous potassium formate, 20-24° C., pH 9.8, day 9",92%
same,Residual natamycin (%),"[1]; propylene glycol + aqueous potassium formate, 20-24° C., pH 9.8, day 12",87%
same,Residual natamycin (%),"[1]; propylene glycol + aqueous potassium formate, 20-24° C., pH 9.8, day 18",92%
same,Residual natamycin (%),"[1]; propylene glycol + aqueous potassium formate, 20-24° C., pH 9.8, day 20",87%
same,Residual natamycin (%),"[1]; propylene glycol + aqueous potassium formate, 20-24° C., pH 9.8, day 27",86%
same,Residual natamycin (%),"[1]; propylene glycol + aqueous potassium formate, 20-24° C., pH 9.8, day 32",82%
same,Residual natamycin (%),"[1]; propylene glycol + aqueous potassium formate, 20-24° C., pH 9.8, day 35",83%
same,Residual natamycin (%),"[1]; propylene glycol + aqueous potassium formate, 20-24° C., pH 9.8, day 43",80%
same,Residual natamycin (%),"[1]; propylene glycol + aqueous potassium formate, 20-24° C., pH 9.8, day 74",69%
same,solubility in water,[2],around 0.04 g/kg
same,Residual natamycin (%),[3]; day 0,89%
same,Residual natamycin (%),[3]; day 1,88%
same,Residual natamycin (%),[3]; day 3,84%
same,Residual natamycin (%),[3]; day 6,81%
same,Residual natamycin (%),[3]; day 10,84%
same,Residual natamycin (%),[3]; day 27,71%
same,Residual natamycin (%),[3]; day 38,63%
same,Residual natamycin (%),[3]; day 45,62%
same,Residual natamycin (%),[3]; day 65,45%
same,Residual natamycin (%),"[4]; Blank (absence of sodium), propylene glycol, pH 6.2, day 0",80%
same,Residual natamycin (%),"[4]; Blank (absence of sodium), propylene glycol, pH 6.2, day 12",43%
same,Residual natamycin (%),"[4]; Blank (absence of sodium), propylene glycol, pH 6.2, day 23",22%
same,Residual natamycin (%),"[4]; Blank (absence of sodium), propylene glycol, pH 6.2, day 30",12%
same,Residual natamycin (%),"[4]; Blank (absence of sodium), propylene glycol, pH 6.2, day 31",7%
same,Residual natamycin (%),"[4]; Blank (absence of sodium), propylene glycol, pH 6.2, day 50",1%
same,Residual natamycin (%),"[4]; propylene glycol + aqueous sodium acetate, pH 8.2, day 0",98%
same,Residual natamycin (%),"[4]; propylene glycol + aqueous sodium acetate, pH 8.2, day 31",72%
same,Residual natamycin (%),"[4]; propylene glycol + aqueous sodium acetate, pH 8.2, day 51",58%
